Data taken from article PMC8632069 (Journal of medicinal chemistry, 2021).
Each block holds one compound with its values, some of them ahead of it.

Experiments:
[1] = mice, IV, 10 mg/kg, plasma; cited from earlier work
[2] = tested on: Mfn2-null (i.e. expressing Mfn1 only) murine embryonic fibroblasts; test: Mitochondrial elongation; type: cell-based, mouse; settings: dose-response, compared with 2; result in words
[3] = Plasma and nerve tissue pharmacokinetics, single oral dose in non-fasted mice; type: in vivo; settings: male, CD-1, mouse, 50 mg/kg
[4] = tested on: mitofusin mRNA expression; settings: transcriptional enhancer of mitofusin mRNA expression; cited from earlier work

SMILES: O=C(CCCCCc1ccccc1)N[C@H]1CC[C@H](O)CC1 [Compound 2]
C0 [1]: 50,600 ng/mL

SMILES: O=C(CCCCc1ccccc1)N[C@H]1CC[C@H](O)CC1 [Compound 3, N-((1r,4r)-4-hydroxycyclohexyl)-5-phenylpentanamide]
mitofusin activation measured as ability to promote mitochondrial fusion (increased aspect ratio) [2]: largely abrogated mitofusin activation

SMILES: O=C(CCCc1ccccc1)N[C@H]1CC[C@H](O)CC1 [Compound 4, N-((1r,4r)-4-hydroxycyclohexyl)-4-phenylbutanamide]
mitofusin activation measured as ability to promote mitochondrial fusion (increased aspect ratio) [2]: largely abrogated mitofusin activation

MRT inf ([3]; plasma): 3.58 h
Tmax ([3]; plasma): 0.5 h
SMILES: O=C(N[C@H]1CC[C@H](O)CC1)C1CC1CCCc1ccccc1 (stereo partly shown) [Compound 5, N-(4-hydroxycyclohexyl)-2-(3-phenylpropyl)cyclopropane-1-carboxamide]

Kp ([3]; brain and plasma): 0.394
SMILES: O=C(N[C@H]1CC[C@H](O)CC1)[C@@H]1C[C@H]1CCCc1ccccc1 [Compound 5B, N-(4-hydroxycyclohexyl)-2-(3-phenylpropyl)cyclopropane-1-carboxamide]

SMILES: Cc1oncc1C(=O)Nc1ccc(C(F)(F)F)cc1 [leflunomide]
effective concentrations [4]: 10 to 50 µM
